Measured values as given in patent US6271342A, “Sugar-modified cytostatics” (Bayer Aktiengesellschaft, priority 1995, dated 2001).
In brackets after ≈: the same amount, converted by molar mass.

Legend:
[1] = Acute toxicity, single administration; type: in vivo, nu/nu naked mice; conditions: single administration i.v., aqueous solution
Method: Determination of the Acute Toxicity of Glycoconjugates of Batracyline (Single Administration)
The acute toxicity of the batracyline derivatives was determined on nu/nu naked mice.
The substances administered i.v., as aqueous solutions, and the substances administered i.p., as solutions in dimethyl sulphoxide, were injected once in concentrations of up to 400 mg of substance per kg of mouse.
The individual dose tolerated was calculated from the decrease in the weight of the animals up to 21 days after administration and from the number of animals surviving.

[2] = tested on: bone marrow parent cells of the mouse; test: CSF-induced proliferation of bone marrow parent cells, in vitro; type: cell-based; conditions: recombinant murine GM-CSF, 7 days
Method: Bone marrow cells are flushed out of the femur of mice. 10^5 cells are incubated in McCoy SA medium (0.3% agar) together with recombinant murine GM-CSF (Genzyme; parent cell colony formation) and the substances (10^-4 to 100 μg/ml) at 37° C. and 7% CO2. 7 days later, the colonies ([…]) and clusters (17-50 cells) are counted.

bone marrow parent cells = test: Bone marrow parent cell proliferation after in vivo treatment; design: species or system mouse
Method: Mice are treated subcutaneously with 1, 3, 10 or 30 mg/kg of the compounds. At various times (3, 24, 48, 72 p. inj.) the femurs are removed and the bone marrow cells isolated. 2×10^5 cells are incubated with GM-CSF as described above and, after 7 days, the colonies and clusters are counted.

CXF 280 = test: Two-layer soft agar culture of human tumour xenografts; type: cell-based; conditions: T/C ≤30%
Method: (§1) The in vitro activity of glycoconjugates of quinolone-a was determined on human tumour xenografts in a two-layer soft agar culture system according to Hamburger and Salmon (Science 197: 461-463).
(§2) The solid tumours were initially grown in the athymic naked mouse (NMRI nu/nu), obtained by surgery and comminuted mechanically. Individual cells were then obtained by incubation in an enzyme mixture of collagenase 0.05%, DNAse 0.07% and hyaluronidase 0.1% in RPMI at 37° C. for 30 minutes. The cells were washed 2× and then passed through a sieve of 200 μm and 20 μm mesh width.
(§3) The base layer comprises 0.2 ml of Iscoves's Modified Dulbeccos Medium with 20% foetal calf serum and 0.7% agar. 40,000 to 200,000 cells in 0.2 ml of the same medium and 0.4% agar were applied to this layer in 24 multiwell plates. The cytostatic substances were added in 0.2 ml of medium.
(§4) The cultures were incubated at 37° C. in a 7% CO2 atmosphere for 6 to 15 days. The colonies which had grown were then counted under an inverting microscope, the living colonies being stained with a tetrazolium chloride dyestuff 24 hours before the evaluation.
(§5) The effect of the active compound is expressed in per cent of surviving colonies compared with the colony count of untreated plates (T/C=colony count treated×100/control count untreated).
(§6) A substance is active if the T/C value is ≤30%.
(§7) This value is shown as the IC70 value in μg/ml in Table 8.

HT 29 = test: as above; type: cell-based; conditions: T/C ≤30%
Method: as §1, §2, §3, §4, §5, §6, §7

LXFL 529 = test: as above; type: cell-based; conditions: T/C ≤30%
Method: as §1, §2, §3, §4, §5, §6, §7

LXFS 538 = test: as above; type: cell-based; conditions: T/C ≤30%
Method: as §1, §2, §3, §4, §5, §6, §7

MEXF 989 = test: as above; type: cell-based; conditions: T/C ≤30%
Method: as §1, §2, §3, §4, §5, §6, §7

OVXF 1023 = test: as above; type: cell-based; conditions: T/C ≤30%
Method: as §1, §2, §3, §4, §5, §6, §7

OVXF 899 = test: as above; type: cell-based; conditions: T/C ≤30%
Method: as §1, §2, §3, §4, §5, §6, §7

SW 480 [3] = test: as above; type: cell-based; conditions: T/C ≤30%
Method: as §1, §2, §3, §4, §5, §6, §7

B16F10 tumour = test: In vivo test, survival of mice with transplanted B16F10 tumour; design: species or system mouse; conditions: 0.1 mg/kg, treated daily
Method: Mice are inoculated with 5×10^6 B16F10 tumour cells on day 0. The animals in which tumour cells are transplanted develop solid peritoneal tumours and are then treated daily with test substances or with the vehicle control. In the control group, 50% of the animals usually die between day 14 and 20. The test substances are administered in buffer or an organic solvent system comprising 20% methanol and 20% dimethyl sulphoxide in 0.7% sodium chloride solution.
The therapeutic result arises from the prolonging of the survival time of the treated animals. […] A therapeutic index can be estimated from the tolerance and prolonging of the survival time.

SW 480 [4] = test: Growth inhibition test (MTT) for cytotoxic properties; type: cell-based, human; conditions: Table 1b
Procedure, shortened: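 SW 480 and HT 29 cells in RPMI 1640 with 10% FCS were seeded at 50,000 cells/ml, grown 1 day at 37 °C, then exposed to compound added in DMSO. MTT (5 mg/ml stock) was applied after day 3 and day 6 for 5 h, and formazan absorbance was read at 540 nm. IC50 values reported.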

B 16 F 10 = test: as above; type: cell-based, mouse; conditions: Table 1b
Procedure, shortened: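 Cells in RPMI 1640 with 10% FCS pre-cultured 1 day at 37° C, then exposed to test substances in DMSO; growth checked after day 3 and day 6. Read-out by MTT, 5 h incubation, isopropanol solubilization, extinction at 540 nm.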

[5] = Cleavage kinetics with human blood (HPLC); type: in vitro ADME; conditions: Table 2b; 37° C.
Source text: In Vitro Investigation of the Cleavability of the Glycoconjugates
Cleavage Kinetics With Human Blood

SW-480 = test: Cleavage kinetics with cells (HPLC); conditions: Table 2b; 37° C.
Method: Cleavage Kinetics With Cells
(§8) 2.25 ml of PBS are incubated together with 225 μl of a cell suspension (30 mg/ml) and 25 μl of substrate stock solution (1 mg/ml in 3% dimethyl sulphoxide in PBS) at 37° C. After 1 hour and 24 hours, samples of in each case 1 ml are taken, mixed with 1 ml of ethanol and left to stand at 4° C. for 20 minutes. After centrifugation (5 minutes at 3500 rpm), 100 μl of supernatant are taken for the HPLC analysis.

hepatoma = test: Cleavage kinetics with cells (HPLC); conditions: Table 2b; 37° C.
Method: Cleavage Kinetics With Cells
as §8

Row | SMILES | Individual dose tolerated in mg/kg of mouse, i.v. [1] | IC70 /μg/ml (CXF 280) [µg/mL] | IC70 /μg/ml (HT 29) [µg/mL] | IC70 /μg/ml (LXFL 529) [µg/mL] | IC70 /μg/ml (LXFS 538) [µg/mL] | IC70 /μg/ml (MEXF 989) [µg/mL] | IC70 /μg/ml (OVXF 1023) [µg/mL] | IC70 /μg/ml (OVXF 899) [µg/mL] | IC70 /μg/ml (SW 480 [3]) [µg/mL] | other results
1 | N[C@@H]1C=CC[C@@H]2CN(c3c(F)cc4c(=O)c(C(=O)O)cn(C5CC5)c4c3Cl)C[C@@H]21 (racemic) [Quinolone-a, 7-[(3aRS,4RS,7aSR)-4-amino-1,3,3a,4,7,7a-hexahydro-isoindol-2-yl]-8-chloro 1-cyclopropyl-6-fluoro-1,4-dihydro4-oxo-3-quinolinecarboxylic acid, reference compound] | < 25 mg/kg of mouse | 6 (≈ 14.4 µM) | 20 (≈ 47.9 µM) | 3 (≈ 7.18 µM) | < 0.3 | < 0.3 | 0.5 (≈ 1.2 µM) | 2 (≈ 4.79 µM) | 3 (≈ 7.18 µM) | IC50 ([2]; Mus musculus, 168 h, read-out: IC50 [μg/ml] CSF-induced proliferation of bone marrow parent cells of the mouse): 0.0002 µg/mL; suppression of parent cell proliferation in vivo (bone marrow parent cells; 3 mg/kg, subcutaneously (FIG. 1)): massive suppression; % survivors Day 0 (B16F10 tumour): 100%; % survivors Day 20 (B16F10 tumour): 100%; % survivors Day 25 (B16F10 tumour): 100%; % survivors Day 30 (B16F10 tumour): 60%; % survivors Day 35 (B16F10 tumour): 40%
2 | C[C@@H]1O[C@H](Oc2ccc(NC(=S)N[C@H](C)C(=O)NC3C=CCC4CN(c5c(F)cc6c(=O)c(C(=O)O)cn(C7CC7)c6c5Cl)CC43)cc2)[C@@H](O)[C@H](OCC(=O)[O-])[C@@H]1O.[Na+] (stereo partly drawn) [Example 12.3, N-{N'-[O-(3-O-Carboxymethyl-β-L-fucosyl)-4-hydroxy-phenylamino-thiocarbonyl]-D-alanyl}-quinolone-a, mono-sodium salt] | > 200 mg/kg of mouse | 5 | 5 | 2 | 0.5 | < 0.3 | 10 | 162 | 11 | IC50 (SW 480 [4]): 2 µM; IC50 (B 16 F 10): 0.3 µM; % cleavage in human blood 1 hour [5]: 0%; % cleavage in human blood 24 hours [5]: 0%; IC50 [μg/ml] CSF-induced proliferation of bone marrow parent cells of the mouse [2]: 0.27 µg/mL; inhibition in parent cell proliferation in vivo (bone marrow parent cells; up to 30 mg/kg, subcutaneously): no inhibition; % cleavage in SW-480 1 hour (SW-480): 0%; % cleavage in SW-480 24 hours (SW-480): 0%; % cleavage in hepatoma 1 hour (hepatoma): 0%; % cleavage in hepatoma 24 hours (hepatoma): 0%
